# Assay results from publication PMC5224920, “Assessing the mechanism and therapeutic potential of modulators of the human Mediator complex-associated protein kinases” (eLife, 2016).
# Tested on: 12 single or co-culture in vitro tissue models of primary cells
# Experiment: Culture/co-culture cell model panel, extracellular biomarkers (DiscoveRx); for CCL2/MCP-1: reference of the scale not given here; for CXCL8/IL-8: reference of the scale not given here; for CXCL9/MIG: reference of the scale not given here; for M-CSF: reference of the scale not given here; for SRB: reference of the scale not given here
# Assay type: cell-based, human
# [1] = /HDFNo unstimulated fibroblasts, 1.00E4 nM
# [2] = /HDFNo unstimulated fibroblasts, 1.11E3 nM
# [3] = /HDFNo unstimulated fibroblasts, 1.23E2 nM
# [4] = /HDFNo unstimulated fibroblasts, 1.37E1 nM
# [5] = /HDFNo unstimulated fibroblasts, 3.33E3 nM
# [6] = /HDFNo unstimulated fibroblasts, 3.70E2 nM
# [7] = /HDFNo unstimulated fibroblasts, 4.12E1 nM
# [8] = /HDFNo unstimulated fibroblasts, 4.57E0 nM
compound,measurement,setting,value
Cc1n[nH]c2ncc(C(=O)N3CCC[C@H]3c3ccc(Cl)cc3)cc12 [CMPD4],M-CSF,"/HDF3CT, 3.70E2 nM",-0.052
same,MMP-1,"/HDF3CT, 3.70E2 nM",-0.021
same,PAI-I,"/HDF3CT, 3.70E2 nM",-0.054
same,SRB,"/HDF3CT, 3.70E2 nM",0.014
same,TIMP-2,"/HDF3CT, 3.70E2 nM",0.055
same,CCL2/MCP-1,"/HDF3CT, 4.12E1 nM",-0.025
same,CD54/ICAM-1,"/HDF3CT, 4.12E1 nM",-0.054
same,CD106/VCAM-1,"/HDF3CT, 4.12E1 nM",0.009
same,CXCL8/IL-8,"/HDF3CT, 4.12E1 nM",-0.089
same,CXCL9/MIG,"/HDF3CT, 4.12E1 nM",-0.015
same,CXCL10/IP-10,"/HDF3CT, 4.12E1 nM",0.023
same,Collagen I,"/HDF3CT, 4.12E1 nM",-0.036
same,M-CSF,"/HDF3CT, 4.12E1 nM",-0.072
same,MMP-1,"/HDF3CT, 4.12E1 nM",0.049
same,PAI-I,"/HDF3CT, 4.12E1 nM",-0.006
same,SRB,"/HDF3CT, 4.12E1 nM",0.013
same,TIMP-2,"/HDF3CT, 4.12E1 nM",0.105
same,CCL2/MCP-1,"/HDF3CT, 4.57E0 nM",0.071
same,CD54/ICAM-1,"/HDF3CT, 4.57E0 nM",-0.030
same,CD106/VCAM-1,"/HDF3CT, 4.57E0 nM",0.022
same,CXCL8/IL-8,"/HDF3CT, 4.57E0 nM",-0.033
same,CXCL9/MIG,"/HDF3CT, 4.57E0 nM",0.019
same,CXCL10/IP-10,"/HDF3CT, 4.57E0 nM",0.003
same,Collagen I,"/HDF3CT, 4.57E0 nM",0.009
same,M-CSF,"/HDF3CT, 4.57E0 nM",-0.072
same,MMP-1,"/HDF3CT, 4.57E0 nM",0.086
same,PAI-I,"/HDF3CT, 4.57E0 nM",0.017
same,SRB,"/HDF3CT, 4.57E0 nM",0.023
same,TIMP-2,"/HDF3CT, 4.57E0 nM",0.088
same,CXCL8/IL-8,[1],0.032
same,CXCL9/MIG,[1],0.127
same,CXCL10/IP-10,[1],0.013
same,CXCL11/I-TAC,[1],-0.046
same,EGFR,[1],0.051
same,M-CSF,[1],0.0038
same,MMP-1,[1],-0.013
same,PAI-I,[1],-0.051
same,Proliferation_72hr,[1],0.179
same,SRB,[1],0.000631
same,TIMP-1,[1],0.019
same,TIMP-2,[1],-0.228
same,CXCL8/IL-8,[2],-0.076
same,CXCL9/MIG,[2],-0.081
same,CXCL10/IP-10,[2],-0.021
same,CXCL11/I-TAC,[2],-0.035
same,EGFR,[2],-0.009
same,M-CSF,[2],-0.068
same,MMP-1,[2],-0.043
same,PAI-I,[2],-0.052
same,Proliferation_72hr,[2],0.134
same,SRB,[2],0.024
same,TIMP-1,[2],0.00471
same,TIMP-2,[2],-0.013
same,CXCL8/IL-8,[3],-0.103
same,CXCL9/MIG,[3],-0.075
same,CXCL10/IP-10,[3],-0.039
same,CXCL11/I-TAC,[3],-0.045
same,EGFR,[3],-0.011
same,M-CSF,[3],0.013
same,MMP-1,[3],-0.032
same,PAI-I,[3],0.00163
same,Proliferation_72hr,[3],0.087
same,SRB,[3],0.010
same,TIMP-1,[3],-0.034
same,TIMP-2,[3],0.076
same,CXCL8/IL-8,[4],-0.022
same,CXCL9/MIG,[4],-0.044
same,CXCL10/IP-10,[4],-0.0053
same,CXCL11/I-TAC,[4],-0.037
same,EGFR,[4],0.035
same,M-CSF,[4],0.000135
same,MMP-1,[4],-0.004
same,PAI-I,[4],-0.012
same,Proliferation_72hr,[4],0.060
same,SRB,[4],0.007
same,TIMP-1,[4],0.000829
same,TIMP-2,[4],0.075
same,CXCL8/IL-8,[5],-0.039
same,CXCL9/MIG,[5],-0.027
same,CXCL10/IP-10,[5],-0.048
same,CXCL11/I-TAC,[5],-0.031
same,EGFR,[5],0.046
same,M-CSF,[5],-0.016
same,MMP-1,[5],-0.033
same,PAI-I,[5],-0.029
same,Proliferation_72hr,[5],0.157
same,SRB,[5],0.00444
same,TIMP-1,[5],0.014
same,TIMP-2,[5],-0.121
same,CXCL8/IL-8,[6],-0.076
same,CXCL9/MIG,[6],-0.059
same,CXCL10/IP-10,[6],-0.040
same,CXCL11/I-TAC,[6],-0.00462
same,EGFR,[6],-0.018
same,M-CSF,[6],-0.00531
same,MMP-1,[6],-0.010
same,PAI-I,[6],-0.018
same,Proliferation_72hr,[6],0.139
same,SRB,[6],0.020
same,TIMP-1,[6],0.003
same,TIMP-2,[6],0.082
same,CXCL8/IL-8,[7],-0.024
same,CXCL9/MIG,[7],-0.065
same,CXCL10/IP-10,[7],-0.026
same,CXCL11/I-TAC,[7],-0.032
same,EGFR,[7],0.00663
same,M-CSF,[7],-0.024
same,MMP-1,[7],-0.026
same,PAI-I,[7],-0.010
same,Proliferation_72hr,[7],0.102
same,SRB,[7],0.013
same,TIMP-1,[7],-0.020
same,TIMP-2,[7],0.059
same,CXCL8/IL-8,[8],0.034
same,CXCL9/MIG,[8],0.056
same,CXCL10/IP-10,[8],0.00467
same,CXCL11/I-TAC,[8],-0.00186
same,EGFR,[8],0.019
same,M-CSF,[8],-0.012
same,MMP-1,[8],0.055
same,PAI-I,[8],0.075
same,Proliferation_72hr,[8],0.072
same,SRB,[8],0.043
same,TIMP-1,[8],0.048
same,TIMP-2,[8],-0.057
same,CCL2/MCP-1,"/HDFNo, 1.00E4 nM",0.040
same,CD54/ICAM-1,"/HDFNo, 1.00E4 nM",0.094
same,CD106/VCAM-1,"/HDFNo, 1.00E4 nM",0.027
same,Collagen I,"/HDFNo, 1.00E4 nM",0.067
same,Collagen III,"/HDFNo, 1.00E4 nM",-0.015
same,CCL2/MCP-1,"/HDFNo, 1.11E3 nM",0.00326
same,CD54/ICAM-1,"/HDFNo, 1.11E3 nM",-0.048
same,CD106/VCAM-1,"/HDFNo, 1.11E3 nM",-0.067
same,Collagen I,"/HDFNo, 1.11E3 nM",-0.022
same,Collagen III,"/HDFNo, 1.11E3 nM",0.013
same,CCL2/MCP-1,"/HDFNo, 1.23E2 nM",-0.009
same,CD54/ICAM-1,"/HDFNo, 1.23E2 nM",-0.013
same,CD106/VCAM-1,"/HDFNo, 1.23E2 nM",-0.096
same,Collagen I,"/HDFNo, 1.23E2 nM",-0.065
same,Collagen III,"/HDFNo, 1.23E2 nM",0.012
same,CCL2/MCP-1,"/HDFNo, 1.37E1 nM",-0.022
same,CD54/ICAM-1,"/HDFNo, 1.37E1 nM",-0.024
same,CD106/VCAM-1,"/HDFNo, 1.37E1 nM",0.020
same,Collagen I,"/HDFNo, 1.37E1 nM",-0.080
same,Collagen III,"/HDFNo, 1.37E1 nM",0.026
same,CCL2/MCP-1,"/HDFNo, 3.33E3 nM",-0.021
same,CD54/ICAM-1,"/HDFNo, 3.33E3 nM",-0.005
same,CD106/VCAM-1,"/HDFNo, 3.33E3 nM",-0.034
same,Collagen I,"/HDFNo, 3.33E3 nM",-0.014
same,Collagen III,"/HDFNo, 3.33E3 nM",0.025
same,CCL2/MCP-1,"/HDFNo, 3.70E2 nM",-0.005
same,CD54/ICAM-1,"/HDFNo, 3.70E2 nM",-0.029
same,CD106/VCAM-1,"/HDFNo, 3.70E2 nM",-0.058
same,Collagen I,"/HDFNo, 3.70E2 nM",-0.055
same,Collagen III,"/HDFNo, 3.70E2 nM",0.000891
same,CCL2/MCP-1,"/HDFNo, 4.12E1 nM",0.007
same,CD54/ICAM-1,"/HDFNo, 4.12E1 nM",-0.036
same,CD106/VCAM-1,"/HDFNo, 4.12E1 nM",-0.047
same,Collagen I,"/HDFNo, 4.12E1 nM",-0.086
same,Collagen III,"/HDFNo, 4.12E1 nM",0.030
same,CCL2/MCP-1,"/HDFNo, 4.57E0 nM",0.025
same,CD54/ICAM-1,"/HDFNo, 4.57E0 nM",0.028
same,CD106/VCAM-1,"/HDFNo, 4.57E0 nM",0.010
